Assay [1] is described as follows: UV-Vis absorbance ratio of sterol-PEG/AmB (affinity comparison). It is filed as binding. Conditions: for affinity ordering of sterol-PEG to AmB / variation of the UV-Vis absorbance ratios A415nm/A350nm: FIG. 2; for variation of the UV-Vis absorbance ratios A415nm/A350nm: for any mixing molar ratios with AmB. The method, then: (1) Adding 23.1 mg AmB aqueous solution to 5 ml dimethyl sulfoxide (DMSO), and then adding in 495 ml ionized water to prepare a mixture. Taking 10 ml volume out of the mixture, and diluting the 10 ml volume with 30 ml 1% dimethyl sulfoxide (DMSO) aqueous solution to prepare 12.5 μM AmB aqueous solution. (2) Adding 13 g n-propanol to 187 ml ionized water to prepare 6.5% n-propanol aqueous solution. (3) Adding 24.4 mg cholesterol-PEG600 to 6.5 g n-propanol, shaking them to completely dissolve cholesterol-PEG600 in n-propanol, and then adding in 93.5 g ionized water to prepare 250 μM cholesterol-PEG600 aqueous solution. (4) Adding […] stigmasterol-PEG600 to 6.5 g n-propanol, shaking them to completely dissolve stigmasterol-PEG600 in n-propanol, and then adding in 93.5 g ionized water to prepare 250 μM stigmasterol-PEG600 aqueous solution. (5) Adding 24.6 mg ergosterol-PEG600 to 6.5 g n-propanol, shaking them to completely dissolve ergosterol-PEG600 in n-propanol, and then adding in 93.5 g ionized water to prepare 250 μM ergosterol-PEG600 aqueous solution. (6) Mixing 10 ml 12.5 μM AmB and 10 ml 250 μM cholesterol-PEG600, the molar ratio of AmB/cholesterol-PEG600 is 1/20. The UV-Vis absorbance ratio A415nm/A350nm of AmB/cholesterol is 0.40 (scanning from 300 nm to 450 nm). (7) Mixing 10 ml 12.5 μM AmB, 5 ml 6.5% n-propanol and 5 ml 250 μM cholesterol-PEG600. The molar ratio of AmB/cholesterol-PEG600 is 1/10. The UV-Vis absorbance ratio of A415nm/A350nm of AmB/cholesterol-PEG600 is 0.44. (8) Mixing 10 ml 12.5 μM AmB, 7.5 ml 6.5% n-propanol and 2.5 ml 250 μM cholesterol-PEG600. The molar ratio of AmB/cholesterol-PEG600 is 1/5. The UV-Vis absorbance ratio of A415nm/A350nm of AmB/cholesterol-PEG600 is 0.48. (9) Mixing 10 ml 12.5 μM AmB, 9.5 ml 6.5% n-propanol and 0.5 ml 250 μM cholesterol-PEG600. The molar ratio of AmB/cholesterol-PEG600 is 1/1. The UV-Vis absorbance ratio of A415nm/A350nm of AmB/cholesterol-PEG600 is 0.48. (10) Measuring absorbance ratio of stigmasterol-PEG600/AmB and ergosterol-PEG600/AmB by the procedures with the same, the result is shown in FIG. 2.
(§1) Using UV-Vis spectroscopy to measure UV-Vis absorbance ratios of cholesterol-PEG600, stigmasterol-PEG600 and ergosterol-PEG600 prepared in Example I to AmB and UV-Vis absorbance ratios of cholesterol, stigmasterol and ergosterol to AmB. The results are as shown in FIG. 1 and FIG. 2, in which FIG. 1 is a curve diagram of A415nm/A350nm vs. sterol/AmB and FIG. 2 is a curve diagram of A415nm/A350nm vs. sterol-PEG600/AmB.

Assay [2] in a line: UV-Vis absorbance ratio of sterol/AmB (affinity comparison). Conditions: for affinity ordering of these three sterols to AmB: FIG. 1, molar ratios from 1:1 to 20:1. Format: binding. The method, then: (1) Adding 23.1 mg Amphotericin B (AmB) to 5 ml dimethyl sulfoxide (DMSO), and then adding in 495 ml ionized water to prepare a mixture, and taking 10 ml volume out of the mixture; diluting the 10 volume with 30 ml 1% dimethyl sulfoxide (DMSO) solution to prepare 12.5 μM Amphotericin B (AmB) aqueous solution. (2) Adding 13 g n-propanol to 187 ml ionized water to prepare 6.5% n-propanol aqueous solution. (3) Adding 28.9 mg cholesterol to 19.5 g n-propanol, shaking them to completely dissolve cholesterol in n-propanol, and then adding in 280.5 gram ionized water to prepare 250 μM cholesterol aqueous solution. (4) Adding […] stigmasterol to 19.5 g n-propanol, shaking them to completely dissolve stigmasterol in n-propanol, and then adding in 280.5 gram ionized water to prepare 250 μM stigmasterol aqueous solution. (5) Adding 29.7 mg ergosterol to 19.5 g n-propanol, shaking them to completely dissolve ergosterol in n-propanol, and then adding in 280.5 gram ionized water to prepare 250 μM ergosterol aqueous solution. (6) Mixing 10 ml 12.5 μM AmB aqueous solution with 10 ml 250 μM cholesterol aqueous solution. The molar ratio of AmB/cholesterol is 1/20. The UV-Vis absorbance ratio A415nm/A350nm of AmB/cholesterol is 0.61 (scanning from 300 nm to 450 nm). (7) Mixing 10 ml 12.5 μM AmB aqueous solution, 5 ml 6.5% n-propanol aqueous solution and 5 ml 250 μM cholesterol aqueous solution. The molar ratio of AmB/cholesterol is 1/10. The UV-Vis absorbance ratio A415nm/A350nm of AmB/cholesterol is 0.59. (8) Mixing 10 ml 12.5 μM AmB aqueous solution, 7.5 ml 6.5% n-propanol aqueous solution and 2.5 ml 250 μM cholesterol aqueous solution. The molar ratio of AmB/cholesterol is 1/5. The UV-Vis absorbance ratio A415nm/A350nm of AmB/cholesterol is 0.60. (9) Mixing 10 ml 12.5 μM AmB aqueous solution, 9.5 ml 6.5% n-propanol aqueous solution and 0.5 ml 250 μM cholesterol aqueous solution. The molar ratio of AmB/cholesterol is 1/1. The UV-Vis absorbance ratio A415nm/A350nm of AmB/cholesterol is 0.49. (10) Measuring absorbance ratio of stigmasterol/AmB and ergosterol/AmB by the procedures with the same, the result is shown in FIG. 1.
as §1

For assay [3] the following is noted: background statement; cited from earlier work.

Take cholesterol-PEG600: the “affinity ordering of sterol-PEG to AmB” value in assay [1] is “ergosterol-PEG600>stigmasterol-PEG600>cholesterol-PEG600”. In assay [1], the “variation of the UV-Vis absorbance ratios A415nm/A350nm” value is reported as “insignificant”. Besides, the “UV-Vis absorbance ratio A415nm/A350nm” value in assay [1] (molar ratio of AmB/cholesterol-PEG600 1/1) is 0.48; in assay [1] (molar ratio of AmB/cholesterol-PEG600 1/5), 0.48; in assay [1] (molar ratio of AmB/cholesterol-PEG600 1/10), 0.44.
`CC(C)CCC[C@@H](C)[C@H]1CC[C@H]2[C@@H]3CC=C4C[C@@H](O)CC[C@]4(C)[C@H]3CC[C@]12C` [cholesterol]: the “affinity ordering of these three sterols to AmB” value in assay [2] was “cholesterol<stigmasterol<ergosterol”. Besides, the “UV-Vis absorbance ratio A415nm/A350nm” value in assay [2] (molar ratio of AmB/cholesterol 1/1) came to 0.49; in assay [2] (molar ratio of AmB/cholesterol 1/5), 0.60; in assay [2] (molar ratio of AmB/cholesterol 1/10) it was 0.59; in assay [2] (molar ratio of AmB/cholesterol 1/20, scanning from 300 nm to 450 nm), 0.61; in assay [1] (molar ratio of AmB/cholesterol-PEG600 1/20, scanning from 300 nm to 450 nm), 0.40.
On to `C[C@@H]1[C@H](O)[C@@H](C)/C=C/C=C/C=C/C=C/C=C/C=C/C=C/[C@H](O[C@@H]2O[C@H](C)[C@@H](O)[C@H](N)[C@@H]2O)C[C@@H]2O[C@](O)(C[C@@H](O)C[C@@H](O)[C@H](O)CC[C@@H](O)C[C@@H](O)CC(=O)O[C@H]1C)C[C@H](O)[C@H]2C(=O)O` [Amphotericin B], for which the “affinity for ergosterol of fungal cells compared with that for cholesterols of mammal” value in assay [3] was “ten times better”.
Regarding `CC[C@H](/C=C/[C@@H](C)[C@H]1CC[C@H]2[C@@H]3CC=C4C[C@@H](O)CC[C@]4(C)[C@H]3CC[C@]12C)C(C)C` [stigmasterol], the “affinity ordering of these three sterols to AmB” value in assay [2] is listed as “cholesterol<stigmasterol<ergosterol”.
Turning to stigmasterol-PEG600, in assay [1], the “affinity ordering of sterol-PEG to AmB” value is recorded as “ergosterol-PEG600>stigmasterol-PEG600>cholesterol-PEG600” and the “variation of the UV-Vis absorbance ratios A415nm/A350nm” value is “insignificant”.
`CC(C)[C@@H](C)/C=C/[C@@H](C)[C@H]1CC[C@H]2C3=CC=C4C[C@@H](O)CC[C@]4(C)[C@H]3CC[C@]12C` [ergosterol]: the “affinity ordering of these three sterols to AmB” value in assay [2] is “cholesterol<stigmasterol<ergosterol”.
On to ergosterol-PEG600, for which, in assay [1], the “affinity ordering of sterol-PEG to AmB” value is recorded as “ergosterol-PEG600>stigmasterol-PEG600>cholesterol-PEG600” and the “variation of the UV-Vis absorbance ratios A415nm/A350nm” value is given as “insignificant”.

Values taken from US20090220599A1, “Antifungal formulation and manufacturing method thereof” (Industrial Technology Research Institute, priority 2003, published 2009).
